“And” between values parts separate entries of the source, which are not always exact repeats. Equal values may be shown once.
Target: T1, Cytochrome P450 3A4 (Homo sapiens, UniProt P08684)
Experiment: Inhibition of CYP3A4 up to 40 uM
Format: ADME
Conditions: not given; call rule not given here

SMILES | IC50 [nM]
CCN(CC)C(=O)CN1Cc2c(nc(C)c(CN)c2-c2ccc(Cl)cc2Cl)C1=O | > 17000
CC(=O)N1CCN(C(=O)CN2Cc3c(nc(C)c(CN)c3-c3ccc(Cl)cc3Cl)C2=O)CC1 | > 17000
Cc1nc2c(c(-c3ccc(Cl)cc3Cl)c1CN)CN(CC(=O)Nc1ccnn1C)C2=O | > 17000
Cc1nc2c(c(-c3ccc(Cl)cc3Cl)c1CN)CN(CC(=O)NCc1cccnc1)C2=O | 7000
Cc1nc2c(c(-c3ccc(Cl)cc3Cl)c1CN)CN(CC(=O)N1CCN(C)CC1)C2=O (atropisomer, axis not shown) | > 17000
Cc1nc2c(c(-c3ccc(Cl)cc3Cl)c1CN)CN(CC(N)=O)C2=O (single isomer, unassigned; atropisomer) | > 17000
CNC(=O)CN1Cc2c(nc(C)c(CN)c2-c2ccc(Cl)cc2Cl)C1=O (single isomer, unassigned; atropisomer) | > 17000
Cc1nc2c(c(-c3ccc(Cl)cc3Cl)c1CN)CN(CC(=O)N(C)C)C2=O (single isomer, unassigned; atropisomer) | > 17000
Cc1nc2c(c(-c3ccc(Cl)cc3Cl)c1CN)CN(CC(=O)N1CCC(C(N)=O)CC1)C2=O (single isomer, unassigned; atropisomer) | > 17000
Cc1nc2c(c(-c3ccc(Cl)cc3Cl)c1CN)CN(CC(=O)N1CCN(S(C)(=O)=O)CC1)C2=O (single isomer, unassigned; atropisomer) | > 17000
Cc1nc2c(c(-c3ccc(Cl)cc3Cl)c1CN)CN(CC(=O)N1CCCC1)C2=O (single isomer, unassigned; atropisomer) | > 17000
Cc1nc2c(c(-c3ccc(Cl)cc3Cl)c1CN)CN(CC(=O)N1CCOCC1)C2=O (single isomer, unassigned; atropisomer) | > 17000

Target: Cytochrome P450 2C19 (Homo sapiens, UniProt P33261)
Experiment: Inhibition of CYP2C19
Format: ADME
Conditions: not given

SMILES | IC50 [nM]
Cc1nc2cn(Cc3ccccc3)cc2c(-c2ccc(Cl)cc2Cl)c1CN | 950
Cc1nc2c(c(-c3ccc(Cl)cc3Cl)c1CN)CN(Cc1ccccc1)C2 | 340
Cc1nc2c(c(-c3ccc(Cl)cc3Cl)c1CN)CN(Cc1ccccc1)C2=O (single isomer, unassigned; atropisomer) | 15000

Target: T2, Voltage-gated inwardly rectifying potassium channel KCNH2 (Homo sapiens, UniProt Q12809)
Experiment: (§1) Inhibition of human ERG at 10 uM by patch clamp assay
Conditions: 10 µM

T2 sequence (Q12809 whole entry): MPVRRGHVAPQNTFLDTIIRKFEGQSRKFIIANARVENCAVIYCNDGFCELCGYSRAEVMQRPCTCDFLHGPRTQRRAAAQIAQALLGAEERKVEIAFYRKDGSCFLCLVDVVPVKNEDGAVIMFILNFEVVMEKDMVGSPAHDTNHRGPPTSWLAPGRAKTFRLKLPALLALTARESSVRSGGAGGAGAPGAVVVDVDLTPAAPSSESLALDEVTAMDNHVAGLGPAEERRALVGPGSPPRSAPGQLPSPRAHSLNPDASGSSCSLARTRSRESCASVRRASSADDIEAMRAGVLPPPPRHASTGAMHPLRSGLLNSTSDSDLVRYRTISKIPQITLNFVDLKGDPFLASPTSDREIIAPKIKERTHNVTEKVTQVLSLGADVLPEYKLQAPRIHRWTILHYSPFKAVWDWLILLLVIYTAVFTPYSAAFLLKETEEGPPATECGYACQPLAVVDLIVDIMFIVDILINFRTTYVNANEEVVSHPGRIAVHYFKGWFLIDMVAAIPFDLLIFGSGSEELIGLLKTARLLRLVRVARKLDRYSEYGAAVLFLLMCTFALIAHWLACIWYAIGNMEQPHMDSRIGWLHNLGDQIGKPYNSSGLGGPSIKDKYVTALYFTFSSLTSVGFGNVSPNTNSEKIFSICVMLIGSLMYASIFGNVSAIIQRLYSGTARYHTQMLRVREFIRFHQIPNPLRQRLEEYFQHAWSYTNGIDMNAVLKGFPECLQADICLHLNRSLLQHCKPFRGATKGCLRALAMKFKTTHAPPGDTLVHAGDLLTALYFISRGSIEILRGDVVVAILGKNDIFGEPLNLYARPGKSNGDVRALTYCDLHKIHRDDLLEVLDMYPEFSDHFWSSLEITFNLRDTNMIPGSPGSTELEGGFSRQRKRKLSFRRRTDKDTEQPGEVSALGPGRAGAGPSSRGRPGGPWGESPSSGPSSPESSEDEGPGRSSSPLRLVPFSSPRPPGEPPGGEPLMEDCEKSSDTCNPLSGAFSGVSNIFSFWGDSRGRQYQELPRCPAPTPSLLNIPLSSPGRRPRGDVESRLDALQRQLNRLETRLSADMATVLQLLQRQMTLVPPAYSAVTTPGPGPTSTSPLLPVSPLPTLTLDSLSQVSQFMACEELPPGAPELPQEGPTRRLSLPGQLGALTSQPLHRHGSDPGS

SMILES | INH
COc1ccccc1N1Cc2c(nc(C)c(CN)c2-c2ccc(Cl)cc2Cl)C1=O (atropisomer R) | 67% and 68%

Target: hERG (KCNH2) (Homo sapiens, UniProt Q12809)
Experiment: as §1
Conditions: INH

hERG (KCNH2), sequence (Q12809 whole entry): as above

SMILES | inhibition at 10 µM [%]
Cc1nc2c(c(-c3ccc(Cl)cc3Cl)c1CN)CN(Cc1ccccc1)C2 | 67
COc1ccccc1N1Cc2c(nc(C)c(CN)c2-c2ccc(Cl)cc2Cl)C1=O (atropisomer R) | 63
Cc1nc2c(c(-c3ccc(Cl)cc3Cl)c1CN)CNC2=O (single isomer, unassigned; atropisomer) | 68
Cc1nc2c(c(-c3ccc(Cl)cc3Cl)c1CN)CN(c1ccccc1)C2=O (single isomer, unassigned; atropisomer) | 69
COc1ccc(N2Cc3c(nc(C)c(CN)c3-c3ccc(Cl)cc3Cl)C2=O)cc1 (single isomer, unassigned; atropisomer) | 67
Cc1ccc(N2Cc3c(nc(C)c(CN)c3-c3ccc(Cl)cc3Cl)C2=O)cc1 (single isomer, unassigned; atropisomer) | 84
Cc1nc2c(c(-c3ccc(Cl)cc3Cl)c1CN)CN(c1ccc(Cl)cc1)C2=O (single isomer, unassigned; atropisomer) | 82
Cc1nc2c(c(-c3ccc(Cl)cc3Cl)c1CN)CN(c1ccc(F)cc1)C2=O (single isomer, unassigned; atropisomer) | 92
Cc1nc2c(c(-c3ccc(Cl)cc3Cl)c1CN)CN(c1ccc(C#N)cc1)C2=O (single isomer, unassigned; atropisomer) | 97

Target: T2, Voltage-gated inwardly rectifying potassium channel KCNH2
Conditions: not given

SMILES | IC50 [nM]
Cc1nc2c(c(-c3ccc(Cl)cc3Cl)c1CN)CN(CC(=O)NCc1cccnc1)C2=O | 80000

Tested on: not listed separately
Experiment: Half life in rat
Format: ADME, organism-based
Conditions: in vivo

SMILES | half-life [h]
Cc1nc2c(c(-c3ccc(Cl)cc3Cl)c1CN)CN(c1ccccc1)C2=O (single isomer, unassigned; atropisomer) | 4.4

Target: Dipeptidyl peptidase 9 (Homo sapiens, UniProt Q86TI2)
Experiment: Inhibition of DPP9
Conditions: not given

Dipeptidyl peptidase 9, sequence (Q86TI2 whole entry): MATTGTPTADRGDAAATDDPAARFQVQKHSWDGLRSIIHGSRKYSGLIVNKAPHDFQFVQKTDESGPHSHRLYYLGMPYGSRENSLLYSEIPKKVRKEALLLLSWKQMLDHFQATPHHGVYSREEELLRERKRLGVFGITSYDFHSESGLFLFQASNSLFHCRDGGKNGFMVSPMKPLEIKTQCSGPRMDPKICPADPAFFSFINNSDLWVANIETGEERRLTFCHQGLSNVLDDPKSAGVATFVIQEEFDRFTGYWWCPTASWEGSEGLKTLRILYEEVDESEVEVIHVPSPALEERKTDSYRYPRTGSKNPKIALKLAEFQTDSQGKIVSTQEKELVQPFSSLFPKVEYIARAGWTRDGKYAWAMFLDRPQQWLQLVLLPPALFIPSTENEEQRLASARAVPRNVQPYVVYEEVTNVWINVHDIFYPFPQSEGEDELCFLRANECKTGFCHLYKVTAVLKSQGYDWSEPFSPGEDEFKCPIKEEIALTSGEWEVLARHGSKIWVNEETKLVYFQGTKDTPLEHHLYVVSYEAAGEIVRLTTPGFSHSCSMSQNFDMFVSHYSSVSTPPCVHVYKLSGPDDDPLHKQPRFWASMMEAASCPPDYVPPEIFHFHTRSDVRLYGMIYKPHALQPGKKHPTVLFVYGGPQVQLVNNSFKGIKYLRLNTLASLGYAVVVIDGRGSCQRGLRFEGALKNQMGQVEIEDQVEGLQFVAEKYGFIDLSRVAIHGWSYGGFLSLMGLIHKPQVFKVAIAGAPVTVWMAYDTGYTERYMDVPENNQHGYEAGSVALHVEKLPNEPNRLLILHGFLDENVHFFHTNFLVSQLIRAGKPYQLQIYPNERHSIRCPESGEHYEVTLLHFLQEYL

SMILES | Ki [nM]
Cc1nc2c(c(-c3ccc(Cl)cc3Cl)c1CN)CN(Cc1ccccc1)C2 | > 30000
Cc1nc2c(c(-c3ccc(Cl)cc3Cl)c1CN)CN(CC(=O)N1CCN(C)CC1)C2=O (atropisomer, axis not shown) | > 10000
Cc1nc2c(c(-c3ccc(Cl)cc3Cl)c1CN)CNC2=O (single isomer, unassigned; atropisomer) | > 30000
Cc1nc2c(c(-c3ccc(Cl)cc3Cl)c1CN)CN(CCO)C2=O (single isomer, unassigned; atropisomer) | > 30000
COCCN1Cc2c(nc(C)c(CN)c2-c2ccc(Cl)cc2Cl)C1=O (single isomer, unassigned; atropisomer) | > 30000

Tested on: not listed separately
Experiment: Cmax in rat at 10 umol/kg
Format: ADME, organism-based
Set-up: dose 10 umol/kg
Conditions: in vivo

SMILES | Cmax [nM]
Cc1nc2c(c(-c3ccc(Cl)cc3Cl)c1CN)CN(Cc1ccccc1)C2 | 76
Cc1nc2c(c(-c3ccc(Cl)cc3Cl)c1CN)CN(Cc1ccccc1)C2=O (single isomer, unassigned; atropisomer) | 500
CNC(=O)CN1Cc2c(nc(C)c(CN)c2-c2ccc(Cl)cc2Cl)C1=O (single isomer, unassigned; atropisomer) | 32

Target: T1, Cytochrome P450 3A4
Experiment: Inhibition of CYP3A4 in presence of the substrate 7-bezyloxy resorufin
Format: ADME
Conditions: not given

SMILES | IC50 [nM]
Cc1nc2cn(Cc3ccccc3)cc2c(-c2ccc(Cl)cc2Cl)c1CN | 730
Cc1nc2c(c(-c3ccc(Cl)cc3Cl)c1CN)CN(Cc1ccccc1)C2 | 340
Cc1nc2c(c(-c3ccc(Cl)cc3Cl)c1CN)CN(Cc1ccccc1)C2=O (single isomer, unassigned; atropisomer) | 1400

Target: T2, Voltage-gated inwardly rectifying potassium channel KCNH2
Experiment: Inhibition of human ERG by flux assay
Conditions: not given

SMILES | IC50 [nM]
Cc1nc2cn(Cc3ccccc3)cc2c(-c2ccc(Cl)cc2Cl)c1CN | 14000

Target: T3, Nuclear receptor subfamily 1 group I member 2 (Homo sapiens, UniProt O75469)
T3 sequence (O75469 whole entry): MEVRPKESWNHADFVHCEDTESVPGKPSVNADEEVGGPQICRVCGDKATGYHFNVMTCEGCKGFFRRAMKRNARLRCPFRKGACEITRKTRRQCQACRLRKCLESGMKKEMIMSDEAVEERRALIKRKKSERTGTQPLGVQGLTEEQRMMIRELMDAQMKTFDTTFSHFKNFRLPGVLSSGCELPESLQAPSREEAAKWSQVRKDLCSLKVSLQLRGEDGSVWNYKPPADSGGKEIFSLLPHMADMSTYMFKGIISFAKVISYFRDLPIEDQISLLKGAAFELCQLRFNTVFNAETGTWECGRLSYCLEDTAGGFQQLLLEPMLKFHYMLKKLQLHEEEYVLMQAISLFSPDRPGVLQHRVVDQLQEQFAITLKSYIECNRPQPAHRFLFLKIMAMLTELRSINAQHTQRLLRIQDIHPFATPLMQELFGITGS
Experiment: Inhibition of PXR
Conditions: not given

SMILES | EC20 [nM] | EC60 [nM]
Cc1nc2cn(Cc3ccccc3)cc2c(-c2ccc(Cl)cc2Cl)c1CN | 1900 | > 5600
Cc1nc2c(c(-c3ccc(Cl)cc3Cl)c1CN)CN(Cc1ccccc1)C2 | 1100 | 3300
Cc1nc2c(c(-c3ccc(Cl)cc3Cl)c1CN)CN(Cc1ccccc1)C2=O (single isomer, unassigned; atropisomer) | 470 | 1400
CNC(=O)CN1Cc2c(nc(C)c(CN)c2-c2ccc(Cl)cc2Cl)C1=O (single isomer, unassigned; atropisomer) | > 50000 | > 50000

Target: T1, Cytochrome P450 3A4
Experiment: Inhibition of CYP3A4 in presence of the substrate 7-bezyloxy-4-trifluoromethyl coumarin
Format: ADME
Conditions: not given

SMILES | IC50
Cc1nc2cn(Cc3ccccc3)cc2c(-c2ccc(Cl)cc2Cl)c1CN | 1100 nM
Cc1nc2c(c(-c3ccc(Cl)cc3Cl)c1CN)CN(Cc1ccccc1)C2 | 770 nM
COc1ccccc1N1Cc2c(nc(C)c(CN)c2-c2ccc(Cl)cc2Cl)C1=O (atropisomer R) | 1500 nM and 1300 nM and 2200 nM
Cc1nc2c(c(-c3ccc(Cl)cc3Cl)c1CN)CNC2=O (single isomer, unassigned; atropisomer) | > 40000 nM
Cc1nc2c(c(-c3ccc(Cl)cc3Cl)c1CN)CN(Cc1ccccc1)C2=O (single isomer, unassigned; atropisomer) | 2800 nM
Cc1nc2c(c(-c3ccc(Cl)cc3Cl)c1CN)CN(c1ccccc1)C2=O (single isomer, unassigned; atropisomer) | 1200 nM
COc1ccc(N2Cc3c(nc(C)c(CN)c3-c3ccc(Cl)cc3Cl)C2=O)cc1 (single isomer, unassigned; atropisomer) | 2500 nM
Cc1ccc(N2Cc3c(nc(C)c(CN)c3-c3ccc(Cl)cc3Cl)C2=O)cc1 (single isomer, unassigned; atropisomer) | 270 nM
Cc1nc2c(c(-c3ccc(Cl)cc3Cl)c1CN)CN(c1ccc(Cl)cc1)C2=O (single isomer, unassigned; atropisomer) | 390 nM
Cc1nc2c(c(-c3ccc(Cl)cc3Cl)c1CN)CN(c1ccc(F)cc1)C2=O (single isomer, unassigned; atropisomer) | 1400 nM
Cc1nc2c(c(-c3ccc(Cl)cc3Cl)c1CN)CN(c1ccc(C#N)cc1)C2=O (single isomer, unassigned; atropisomer) | 670 nM
Cc1nc2c(c(-c3ccc(Cl)cc3Cl)c1CN)CN(C)C2=O (single isomer, unassigned; atropisomer) | > 40000 nM
COC(=O)CN1Cc2c(nc(C)c(CN)c2-c2ccc(Cl)cc2Cl)C1=O (single isomer, unassigned; atropisomer) | 17000 nM
Cc1nc2c(c(-c3ccc(Cl)cc3Cl)c1CN)CN(CC(=O)O)C2=O (single isomer, unassigned; atropisomer) | > 40000 nM
Cc1nc2c(c(-c3ccc(Cl)cc3Cl)c1CN)CN(CCO)C2=O (single isomer, unassigned; atropisomer) | > 40000 nM
COCCN1Cc2c(nc(C)c(CN)c2-c2ccc(Cl)cc2Cl)C1=O (single isomer, unassigned; atropisomer) | 22000 nM

Target: Dipeptidyl peptidase 8 (Homo sapiens, UniProt Q6V1X1)
Experiment: Inhibition of DPP8
Conditions: not given

Dipeptidyl peptidase 8, sequence (Q6V1X1 whole entry): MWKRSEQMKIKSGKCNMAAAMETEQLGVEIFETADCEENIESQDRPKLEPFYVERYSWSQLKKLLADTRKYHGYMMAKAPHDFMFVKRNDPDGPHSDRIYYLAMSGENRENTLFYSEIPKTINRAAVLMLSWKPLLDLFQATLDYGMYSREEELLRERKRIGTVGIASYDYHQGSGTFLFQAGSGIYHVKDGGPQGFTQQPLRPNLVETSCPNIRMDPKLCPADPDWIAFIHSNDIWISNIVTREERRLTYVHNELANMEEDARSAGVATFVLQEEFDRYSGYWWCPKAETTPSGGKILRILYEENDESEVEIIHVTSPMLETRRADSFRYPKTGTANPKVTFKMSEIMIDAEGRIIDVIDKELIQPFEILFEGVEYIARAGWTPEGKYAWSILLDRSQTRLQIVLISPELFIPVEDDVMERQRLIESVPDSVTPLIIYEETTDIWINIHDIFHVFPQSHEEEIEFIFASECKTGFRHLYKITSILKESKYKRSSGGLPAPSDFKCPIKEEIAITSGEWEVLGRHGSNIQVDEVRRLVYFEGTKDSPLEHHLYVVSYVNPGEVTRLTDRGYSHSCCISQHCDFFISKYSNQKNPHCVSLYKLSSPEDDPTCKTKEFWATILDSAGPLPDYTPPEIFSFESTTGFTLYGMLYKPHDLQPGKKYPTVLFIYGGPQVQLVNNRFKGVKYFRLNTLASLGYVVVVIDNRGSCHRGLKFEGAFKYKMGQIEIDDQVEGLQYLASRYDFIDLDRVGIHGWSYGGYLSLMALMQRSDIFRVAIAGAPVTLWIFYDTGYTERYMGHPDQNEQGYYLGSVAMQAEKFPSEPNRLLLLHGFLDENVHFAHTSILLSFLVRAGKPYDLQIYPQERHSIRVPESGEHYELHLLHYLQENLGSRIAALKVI

SMILES | Ki [nM]
Cc1nc2c(c(-c3ccc(Cl)cc3Cl)c1CN)CN(Cc1ccccc1)C2 | > 30000
Cc1nc2c(c(-c3ccc(Cl)cc3Cl)c1CN)CNC2=O (single isomer, unassigned; atropisomer) | > 30000
Cc1nc2c(c(-c3ccc(Cl)cc3Cl)c1CN)CN(C)C2=O (single isomer, unassigned; atropisomer) | > 30000
Cc1nc2c(c(-c3ccc(Cl)cc3Cl)c1CN)CN(CCO)C2=O (single isomer, unassigned; atropisomer) | > 30000

Tested on: not listed separately
Experiment: Oral availability in rat
Format: ADME, organism-based
Conditions: in vivo

SMILES | bioavailability [%]
Cc1nc2c(c(-c3ccc(Cl)cc3Cl)c1CN)CN(c1ccccc1)C2=O (single isomer, unassigned; atropisomer) | 78

Target: T1, Cytochrome P450 3A4
Experiment: Inhibition of CYP3A4
Format: ADME
Conditions: not given

SMILES | inhibition (INH)
Cc1nc2c(c(-c3ccc(Cl)cc3Cl)c1CN)CNC2=O (single isomer, unassigned; atropisomer) | Not Active

Tested on: not listed separately
Experiment: Tmax in rat at 10 umol/kg
Format: ADME, organism-based
Conditions: in vivo

SMILES | Tmax [h]
CNC(=O)CN1Cc2c(nc(C)c(CN)c2-c2ccc(Cl)cc2Cl)C1=O (single isomer, unassigned; atropisomer) | 0.417

Target: Dipeptidyl peptidase 4 (Homo sapiens, UniProt P27487)
Experiment: Inhibition of DPP4
Conditions: not given

Dipeptidyl peptidase 4, sequence (P27487 whole entry): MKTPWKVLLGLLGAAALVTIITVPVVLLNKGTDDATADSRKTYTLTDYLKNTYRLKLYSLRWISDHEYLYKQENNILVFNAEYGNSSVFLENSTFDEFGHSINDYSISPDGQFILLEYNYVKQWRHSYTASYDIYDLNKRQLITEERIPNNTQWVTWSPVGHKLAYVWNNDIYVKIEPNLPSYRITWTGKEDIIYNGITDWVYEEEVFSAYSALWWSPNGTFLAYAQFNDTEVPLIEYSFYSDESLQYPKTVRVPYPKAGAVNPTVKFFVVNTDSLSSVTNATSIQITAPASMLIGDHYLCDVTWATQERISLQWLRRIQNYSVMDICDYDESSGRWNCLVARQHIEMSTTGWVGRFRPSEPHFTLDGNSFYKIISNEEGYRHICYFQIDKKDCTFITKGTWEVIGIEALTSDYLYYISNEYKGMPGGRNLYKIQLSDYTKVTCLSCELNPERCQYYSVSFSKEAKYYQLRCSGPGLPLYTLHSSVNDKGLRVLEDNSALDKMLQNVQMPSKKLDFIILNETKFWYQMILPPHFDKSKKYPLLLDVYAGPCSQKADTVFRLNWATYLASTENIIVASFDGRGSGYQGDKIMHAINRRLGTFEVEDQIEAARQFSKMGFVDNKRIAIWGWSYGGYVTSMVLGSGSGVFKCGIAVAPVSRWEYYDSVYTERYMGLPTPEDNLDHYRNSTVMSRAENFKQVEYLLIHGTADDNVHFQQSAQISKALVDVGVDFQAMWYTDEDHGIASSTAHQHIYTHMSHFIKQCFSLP

SMILES | IC50 [nM] | Ki [nM]
COc1cc2c(cc1OC)-c1nc(N)c(CN)c(-c3ccc(Cl)cc3Cl)c1C2 | 7 | –
NCc1c(-c2ccc(Cl)cc2Cl)cc(-c2ccccc2)nc1N | 920 | –
Cc1nc2c(c(-c3ccc(Cl)cc3Cl)c1CN)CN(CC(=O)N1CCN(C)CC1)C2=O (atropisomer, axis not shown) | – | 0.67
Cc1nc2c(c(-c3ccc(Cl)cc3Cl)c1CN)CN(C)C2=O (single isomer, unassigned; atropisomer) | – | 29
Cc1nc2c(c(-c3ccc(Cl)cc3Cl)c1CN)CN(CCO)C2=O (single isomer, unassigned; atropisomer) | – | 9

Source: ChEMBL document CHEMBL1909536, “7-Oxopyrrolopyridine-derived DPP4 inhibitors-mitigation of CYP and hERG liabilities via introduction of polar functionalities in the active site” (Bioorg Med Chem Lett, 2011)
